Measured values taken from paper doi:10.1101/679977v1 (bioRxiv, 2019).
Square brackets hold non-standard residues; d marks the D form. Ends that are not written are not given here. Peptide text beside a SMILES is read from it.

What was measured:
[1] = tested on: E. coli ATCC25922; assay: Salt, serum, acid and alkaline sensitivity; assay type: cell-based; conditions: for MIC, Control: absence of physiological salts, serum, acid and alkaline; for MIC, FeCl3: in presence of 4μM FeCl3 (final); for MIC, MgCl2: in presence of 1 mM MgCl2; for MIC, KCl: in presence of 4.5 mM KCl (final); for MIC, NaCl: in presence of 150 mM NaCl (final); for MIC, PH=2: peptide incubated at pH=2 for 4 h prior to MIC determination; for MIC, PH=4: peptide incubated at pH=4 for 4 h prior to MIC determination; for MIC, PH=10: peptide incubated at pH=10 for 4 h prior to MIC determination; for MIC, PH=12: peptide incubated at pH=12 for 4 h prior to MIC determination
[2] = tested on: E. coli 25922; assay: Outer membrane permeability; assay type: cell-based; conditions: 2 μM peptide, relative to 10 μg/mL polymyxin B, 5 mM HEPES pH 7.4
[3] = tested on: E. coli; assay: Geometric mean of MICs, selectivity and targeting indices; assay type: cell-based; conditions: for TI Pathogenic strains (targeting index): GM(E. coli)/GM(other pathogenic strains); for TI Pathogenic strains (targeting index) / TI Beneficial strains (targeting index): smaller = greater specificity; for SI E. coli (selectivity index): MHC/GM (E. coli), MHC >128 counted as 256 μM, larger = greater cell selectivity; for TI All (TIall, targeting index): all strains, smaller = greater specificity for E. coli; for GM E. coli: geometric mean of MICs against the 6 E. coli strains, >128 counted as 256 μM; for TI Beneficial strains (targeting index): GM(E. coli)/GM(beneficial strains)
[4] = tested on: Beneficial strains; assay: Geometric mean of MICs; assay type: cell-based; conditions: geometric mean of MICs against beneficial strains; >128 counted as 256 μM
[5] = tested on: HEK293T cells; assay: Cytotoxicity MTT assay; assay type: cell-based, human; conditions: 24 h, 37°C, 128 μM peptide, three independent assays
[6] = tested on: IPEC-J2 cells; assay: Cytotoxicity MTT assay; assay type: cell-based, porcine; conditions: 24 h, 37°C, 128 μM peptide, three independent assays

Row | Molecule | MIC, Control [1] [µM] | MIC, FeCl3 [1] [µM] | MIC, MgCl2 [1] [µM] | MIC, KCl [1] [µM] | MIC, NaCl [1] [µM] | MIC, PH=2 [1] [µM] | MIC, PH=4 [1] [µM] | MIC, PH=10 [1] [µM] | MIC, PH=12 [1] [µM] | outer membrane permeability (NPN uptake) [2] [%] | TI Pathogenic strains (targeting index) [3] | SI E. coli (selectivity index) [3] | TI All (TIall, targeting index) [3] | TIall lower than that of melittin ([3]; from TIall) [times] | increase of specificity for E. coli relative to parental peptide 2 ([3]; from TIall) [times] | GM E. coli [3] [µM] | GM Beneficial strains [4] [µM] | cells killed [5] | cells killed [6] | TI Beneficial strains (targeting index) [3]
1 | CC[C@H](C)[C@H](NC(=O)CNC(=O)[C@H]1CCCN1C(=O)[C@H](CCCCN)NC(=O)[C@H](Cc1c[nH]c2ccccc12)NC(=O)[C@@H](NC(=O)[C@H](CCCCN)NC(=O)[C@H](CCCCN)NC(=O)[C@@H](N)Cc1c[nH]c2ccccc12)[C@@H](C)CC)C(=O)N[C@@H](CCCCN)C(=O)N[C@@H](CCCCN)C(=O)N[C@@H](Cc1c[nH]c2ccccc12)C(=O)N[C@H](C(=O)N[C@@H](CCCCN)C(=O)NCC(=O)NCC(=O)NCC(=O)N[C@@H](CCC(N)=O)C(=O)N[C@@H](CCCCN)C(=O)N[C@@H](CCCNC(=N)N)C(=O)N1CCC[C@H]1C(=O)N[C@@H](CCCNC(=N)N)C(=O)N[C@H](C(=O)N[C@@H](CCCNC(=N)N)C(=O)N[C@@H](CC(C)C)C(=O)N[C@@H](CO)C(=O)N[C@@H](C)C(=O)O)C(C)C)[C@@H](C)CC [Peptide 11] (H-WKKIWK[dP]GIKKWIKGGGQKRPRVRLSA-OH; N-terminus and C-terminus assumed) | 2 | 4 | 16 | 2 | 32 | 4 | 4 | 2 | 4 | 61 | 0.020 | 80.630 | 0.028 | 31 | 2.4 | 3.175 | 256.000 | – | – | –
2 | WIKIWKKIIKKWKK [Peptide 10] | 8 | 8 | 64 | 8 | 32 | 8 | 8 | 8 | 8 | – | 0.707 | 40.315 | 0.376 | – | – | 6.350 | 181.019 | approximately 99% | ~63% | –
3 | CC[C@H](C)[C@H](NC(=O)CNC(=O)[C@H]1CCCN1C(=O)[C@H](CCCCN)NC(=O)[C@H](Cc1c[nH]c2ccccc12)NC(=O)[C@@H](NC(=O)[C@H](CCCCN)NC(=O)[C@H](CCCCN)NC(=O)[C@H](Cc1c[nH]c2ccccc12)NC(=O)[C@@H](NC(=O)[C@H](CCCCN)NC(=O)[C@H](CCCCN)NC(=O)[C@@H](N)Cc1c[nH]c2ccccc12)[C@@H](C)CC)[C@@H](C)CC)C(=O)N[C@@H](CCCCN)C(=O)N[C@@H](CCCCN)C(=O)N[C@@H](Cc1c[nH]c2ccccc12)C(=O)N[C@H](C(=O)N[C@@H](CCCCN)C(=O)N[C@@H](CCCCN)C(=O)N[C@@H](Cc1c[nH]c2ccccc12)C(=O)N[C@H](C(=O)N[C@@H](CCCCN)C(=O)O)[C@@H](C)CC)[C@@H](C)CC [Peptide 4] (H-WKKIWKKIWK[dP]GIKKWIKKWIK-OH; N-terminus and C-terminus assumed) | 2 | 2 | 2 | 2 | 2 | 2 | 2 | 2 | 2 | – | 0.445 | – | 0.233 | – | – | 1.122 | 50.797 | approximately 99% | approximately 99% | 0.022
4 | CC[C@H](C)[C@H](NC(=O)CNC(=O)[C@H]1CCCN1C(=O)[C@H](CCCCN)NC(=O)[C@H](Cc1c[nH]c2ccccc12)NC(=O)[C@@H](NC(=O)[C@H](CCCCN)NC(=O)[C@H](CCCCN)NC(=O)[C@@H](N)Cc1c[nH]c2ccccc12)[C@@H](C)CC)C(=O)N[C@@H](CCCCN)C(=O)N[C@@H](CCCCN)C(=O)N[C@@H](Cc1c[nH]c2ccccc12)C(=O)N[C@H](C(=O)N[C@@H](CCCCN)C(=O)NCC(=O)NCC(=O)NCC(=O)N[C@@H](CCCCN)C(=O)O)[C@@H](C)CC [Peptide 5] (H-WKKIWK[dP]GIKKWIKGGGK-OH; N-terminus and C-terminus assumed) | 8 | 8 | 32 | 8 | >64 | 32 | 32 | 16 | 16 | – | 0.050 | 22.627 | 0.047 | – | – | 11.314 | 256.000 | – | – | 0.044
5 | CC[C@H](C)[C@H](NC(=O)CNC(=O)[C@H]1CCCN1C(=O)[C@H](CCCCN)NC(=O)[C@H](Cc1c[nH]c2ccccc12)NC(=O)[C@@H](NC(=O)[C@H](CCCCN)NC(=O)[C@H](CCCCN)NC(=O)[C@@H](N)Cc1c[nH]c2ccccc12)[C@@H](C)CC)C(=O)N[C@@H](CCCCN)C(=O)N[C@@H](CCCCN)C(=O)N[C@@H](Cc1c[nH]c2ccccc12)C(=O)N[C@H](C(=O)N[C@@H](CCCCN)C(=O)O)[C@@H](C)CC [Peptide 2] (H-WKKIWK[dP]GIKKWIK-OH; N-terminus and C-terminus assumed) | 16 | 16 | 32 | 16 | >64 | 32 | 16 | 16 | 32 | – | 0.070 | 16.000 | 0.067 | – | – | 16.000 | 256.000 | – | – | 0.063
